Key:
HT-22 [1] = assay: Neuroprotective activity in mouse HT22 cells assessed as protection against glutamate-induced oxytosis after 24 hrs by MTT assay relative to resveratrol; assay type: functional
HT-22 [2] = assay: Neuroprotective activity in mouse HT22 cells assessed as protection against glutamate-induced oxytosis after 24 hrs by MTT assay; assay type: functional, cell-based; conditions: HT-22, 24 h
Estrogen receptor [3] = biological target: T1, Estrogen receptor (Homo sapiens, UniProt P03372); assay: Antagonist activity at human ERalpha receptor expressed in human MCF7:D5L cells co-expressing ERE assessed as inhibition of estradiol-induced of luciferase gene expression at 1 uM after 18 hrs relative to ICI182780; assay type: cell-based
T1 sequence (P03372 whole entry): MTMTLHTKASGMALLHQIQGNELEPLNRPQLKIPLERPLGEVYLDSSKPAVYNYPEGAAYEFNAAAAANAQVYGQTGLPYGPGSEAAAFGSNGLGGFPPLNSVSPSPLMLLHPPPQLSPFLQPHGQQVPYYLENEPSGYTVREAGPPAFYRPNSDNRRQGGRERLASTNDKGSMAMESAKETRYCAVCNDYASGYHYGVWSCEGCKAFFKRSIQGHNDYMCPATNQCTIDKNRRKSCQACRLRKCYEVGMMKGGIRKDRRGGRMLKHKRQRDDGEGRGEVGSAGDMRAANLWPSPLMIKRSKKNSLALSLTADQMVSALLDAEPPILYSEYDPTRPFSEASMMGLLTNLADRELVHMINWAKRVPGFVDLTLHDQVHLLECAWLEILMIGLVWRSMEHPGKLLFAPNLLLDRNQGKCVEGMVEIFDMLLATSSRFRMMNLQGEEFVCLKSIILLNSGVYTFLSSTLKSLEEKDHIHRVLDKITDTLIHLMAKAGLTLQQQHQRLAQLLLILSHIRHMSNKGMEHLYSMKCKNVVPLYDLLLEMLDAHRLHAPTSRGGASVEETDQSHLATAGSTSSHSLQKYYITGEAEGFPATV

Ishikawa [4] = assay: Cytotoxicity against human Ishikawa cells at 1 uM by LDH release assay; assay type: cell-based
Estrogen receptor beta [5] = biological target: T2, Estrogen receptor beta (Homo sapiens, UniProt Q92731); assay: Agonist activity at human ERbeta receptor expressed in human HEK293 cells co-expressing ERE assessed as increase of estradiol-induced luciferase gene expression at 1 uM after 18 hrs relative to estradiol; assay type: cell-based; conditions: for activity at 18 h, 1 µM: read-out: Activity; for Activity: hek293, 18 h, 1 µM
Estrogen receptor [6] = biological target: T1, Estrogen receptor; assay: (§1) Partial agonist activity at human ERalpha receptor expressed in human MCF7:D5L cells co-expressing ERE assessed as increase of estradiol-induced luciferase gene expression at 1 uM after 18 hrs relative to estradiol; assay type: cell-based; conditions: 18 h, 1 µM
[7] = Cytotoxicity against mouse HT22 cells assessed as cell viability at 1 uM after 3 days by LDH release assay relative to control; assay type: cell-based, HT-22; conditions: read-out: Activity
[8] = biological target: Aryl hydrocarbon receptor (Mus musculus) (UniProt P30561); assay: Activity at AhR expressed in mouse H1L1.1c2 cells co-expressing XRE assessed as increase of benzo[b]fluoranthene-induced luciferase gene expression at 1 uM after 72 hrs
[9] = Antagonist activity at estrogen receptor in human Ishikawa cells assessed as inhibition of estradiol-induced alkaline phosphatase expression at 1 uM after 72 hrs relative to ICI182780; assay type: cell-based
Estrogen receptor beta [10] = biological target: T2, Estrogen receptor beta; assay: Antagonist activity at human ERbeta receptor expressed in human HEK293 cells co-expressing ERE assessed as inhibition of estradiol-induced of luciferase gene expression at 1 uM after 18 hrs relative to ICI182780; assay type: cell-based; conditions: hek293, 18 h
estrogen receptor alpha = biological target: T3, estrogen receptor alpha (Homo sapiens, UniProt P03372); assay: as §1; assay type: cell-based; conditions: read-out: Activity
T3 sequence (P03372 whole entry): T1 sequence (P03372 whole entry)

Ishikawa [11] = assay: Cytotoxicity against human Ishikawa cells by LDH release assay; assay type: cell-based
estrogen receptor [12] = assay: (§2) Agonist activity at estrogen receptor in human Ishikawa cells assessed as increase of estradiol-induced alkaline phosphatase expression at 1 uM after 72 hrs relative to estradiol; assay type: cell-based; conditions: Ishikawa cells, read-out: Activity
[13] = as §2; assay type: cell-based; conditions: ishikawa, 72 h, 1 µM
MCF7 = assay: Antiproliferative activity against human stradiol-stimulated MCF7 cells at 1 uM after 96 hrs by MTT assay; assay type: cell-based; conditions: mcf7, 96 h
[14] = biological target: Aryl hydrocarbon receptor (Mus musculus) (UniProt P30561); assay: Activity at AhR expressed in mouse H1L1.1c2 cells co-expressing XRE assessed as induction luciferase gene expression at 1 uM after 72 hrs relative to benzo[b]fluoranthene
[15] = biological target: Aryl hydrocarbon receptor (Mus musculus) (UniProt P30561); assay: Activity at AhR expressed in mouse H1L1.1c2 cells co-expressing XRE assessed as induction luciferase gene expression at 10 nM after 72 hrs

Sequence of Aryl hydrocarbon receptor (Mus musculus) (P30561 whole entry, looked up): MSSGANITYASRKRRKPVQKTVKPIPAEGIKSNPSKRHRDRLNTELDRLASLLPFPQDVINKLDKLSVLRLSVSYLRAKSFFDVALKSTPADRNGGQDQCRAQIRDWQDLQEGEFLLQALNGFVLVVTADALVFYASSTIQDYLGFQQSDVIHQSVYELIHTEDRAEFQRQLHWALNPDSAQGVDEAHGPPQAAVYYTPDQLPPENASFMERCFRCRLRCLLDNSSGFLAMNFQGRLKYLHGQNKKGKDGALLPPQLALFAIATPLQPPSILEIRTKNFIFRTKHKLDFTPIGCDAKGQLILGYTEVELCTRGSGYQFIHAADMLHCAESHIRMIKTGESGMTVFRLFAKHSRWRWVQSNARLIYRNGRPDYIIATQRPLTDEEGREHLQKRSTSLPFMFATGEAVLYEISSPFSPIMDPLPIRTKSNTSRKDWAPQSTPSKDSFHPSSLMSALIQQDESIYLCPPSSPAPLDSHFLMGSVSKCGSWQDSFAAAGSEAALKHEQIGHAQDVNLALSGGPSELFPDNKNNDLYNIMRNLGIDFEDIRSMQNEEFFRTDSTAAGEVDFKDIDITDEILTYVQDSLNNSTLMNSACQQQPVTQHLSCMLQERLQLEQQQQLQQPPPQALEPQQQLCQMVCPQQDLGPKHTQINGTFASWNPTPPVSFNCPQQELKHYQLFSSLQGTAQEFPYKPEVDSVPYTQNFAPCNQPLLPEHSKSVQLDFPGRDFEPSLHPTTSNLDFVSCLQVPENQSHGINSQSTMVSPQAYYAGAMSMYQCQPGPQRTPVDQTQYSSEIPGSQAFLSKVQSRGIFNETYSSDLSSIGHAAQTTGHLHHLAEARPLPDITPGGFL
T2 sequence (Q92731 whole entry): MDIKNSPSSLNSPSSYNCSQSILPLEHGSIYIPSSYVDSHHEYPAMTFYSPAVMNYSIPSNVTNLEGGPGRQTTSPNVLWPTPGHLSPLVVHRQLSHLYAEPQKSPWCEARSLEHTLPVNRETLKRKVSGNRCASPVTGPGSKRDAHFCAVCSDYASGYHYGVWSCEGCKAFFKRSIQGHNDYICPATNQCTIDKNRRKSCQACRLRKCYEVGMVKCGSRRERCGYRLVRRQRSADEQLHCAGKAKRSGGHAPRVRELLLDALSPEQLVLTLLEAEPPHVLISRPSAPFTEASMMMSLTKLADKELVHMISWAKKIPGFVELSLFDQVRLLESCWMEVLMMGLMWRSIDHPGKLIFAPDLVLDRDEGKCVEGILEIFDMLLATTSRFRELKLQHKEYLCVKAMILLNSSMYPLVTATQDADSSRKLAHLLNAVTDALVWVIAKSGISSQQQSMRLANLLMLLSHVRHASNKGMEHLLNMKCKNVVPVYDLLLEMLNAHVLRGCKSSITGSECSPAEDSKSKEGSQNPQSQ

Activity (Estrogen receptor [3]) | activity at 18 h, 1 µM (Estrogen receptor beta [5]) [%] | Activity (Estrogen receptor [6]) | Activity [8] [%] | Activity [9] | Activity (Estrogen receptor beta [10]) | Activity (Estrogen receptor beta [5]) | activity at 18 h, 1 µM (estrogen receptor alpha) [%] | activity at 72 h, 1 µM (estrogen receptor [12]) [%] | Activity [13] | Ratio [14] | Compound | Ratio EC50 (HT-22 [1]) | EC50 (HT-22 [2]) [nM] | Activity (Ishikawa [4]) | percent cytotoxicity (LDH release relative to control) at 72 h, 1 µM [7] [%] | Activity (Ishikawa [11]) | Activity (MCF7) | Activity [15] [%]
– | – | – | – | – | – | – | – | – | – | – | COc1cc(O)cc(/C=C/c2cc(C(C)(C)C)c(O)c(C(C)(C)C)c2)c1 | 18 | 258 | – | – | – | – | –
Not Active | 66 | Not Active | 1.7 | – | – | – | – | – | – | – | Oc1ccc(/C=C/C=C/c2cc(O)cc(O)c2)cc1 | 1.4 | 3310 | Toxic | 8 | – | – | –
Not Active | – | – | 1.7 | Not Active | Not Active | Not Active | 37 | 21 | – | – | CCC(CC)c1cc(/C=C/C=C/c2cc(O)cc(O)c2)ccc1O | 59 | 79 | – | -5 | Non-toxic | – | –
Not Active | – | Not Active | 1.6 | Not Active | Not Active | Not Active | – | – | Not Active | – | CC(C)(C)c1cc(/C=C/C=C/c2cc(O)cc(O)c2)cc(C(C)(C)C)c1O | 39 | 119 | – | -5.3 | Non-toxic | – | –
Not Active | – | Not Active | 1.5 | Not Active | Not Active | Not Active | – | – | Not Active | – | CC(C)(C)c1cc(/C=C/c2cc(O)cc(O)c2)ccc1O | 9.6 | 484 | – | -6 | Non-toxic | – | –
Not Active | – | Not Active | 1.5 | Not Active | Not Active | Not Active | – | – | Not Active | – | CC(C)(C)c1cc(/C=C/c2cc(O)cc(O)c2)cc(C(C)(C)C)c1O | 104 | 45 | – | -6.7 | Non-toxic | Non-toxic | –
Not Active | – | Not Active | 2.2 | Not Active | Not Active | Not Active | – | – | Not Active | – | CCC(CC)c1cc(/C=C/C=C/c2cc(O)cc(O)c2)cc(C(CC)CC)c1O | 389 | 12 | – | -6 | Non-toxic | Non-toxic | –
– | – | Not Active | 1.2 | Not Active | – | – | – | – | Not Active | – | Oc1ccc(/C=C/c2cc(O)cc(O)c2)cc1 [RESVERATROL] | – | 4670 | – | 4 | Non-toxic | – | –
Not Active | – | Not Active | 3 | Not Active | Not Active | Not Active | – | – | Not Active | 1.9 | CCC(CC)c1cc(/C=C/c2cc(O)cc(O)c2)cc(C(CC)CC)c1O | 156 | 30 | – | -6.7 | Non-toxic | Non-toxic | –
– | – | – | – | – | – | – | – | – | – | – | COc1c(C(C)(C)C)cc(/C=C/c2cc(C(C)(C)C)c(O)c(C(C)(C)C)c2)cc1C(C)(C)C | <1 | > 10000 | – | – | – | – | –
Not Active | 19 | – | 1.5 | Not Active | Not Active | – | 49 | 25 | – | – | CC(C)(C)c1cc(/C=C/c2ccc(O)cc2)ccc1O | 4.4 | 1060 | – | -5.3 | Non-toxic | – | –
Not Active | – | – | 1.7 | Not Active | Not Active | Not Active | 65 | 38 | – | – | CCC(CC)c1cc(/C=C/c2cc(O)cc(O)c2)ccc1O | 11 | 432 | – | -1 | Non-toxic | – | –
– | – | – | – | – | – | – | – | – | – | – | COc1c(C(C)(C)C)cc(/C=C/C=C/c2cc(O)cc(O)c2)cc1C(C)(C)C | 11 | 410 | – | – | – | – | –
Not Active | 18 | – | 1.6 | Not Active | Not Active | – | 34 | – | Not Active | – | CC(C)(C)c1cc(/C=C/C=C/c2cc(O)cc(O)c2)ccc1O | 51 | 91 | – | -8.7 | Non-toxic | – | –
Not Active | – | Not Active | 1.4 | Not Active | Not Active | Not Active | – | – | Not Active | – | CC(C)(C)c1cc(/C=C/c2cc(C(C)(C)C)c(O)c(C(C)(C)C)c2)cc(C(C)(C)C)c1O | 12 | 399 | – | 1.3 | Non-toxic | – | –
– | – | – | – | – | – | – | – | – | – | – | COc1c(C(C)(C)C)cc(/C=C/c2cc(O)cc(O)c2)cc1C(C)(C)C | 7.5 | 621 | – | – | – | – | –
– | – | – | – | – | – | – | – | – | – | – | c1ccc2c(c1)-c1cccc3c1c-2cc1ccccc13 [BENZO[B]FLUORANTHENE] | – | – | – | – | – | – | 13.1
